The text below walks through data of US9315487B2, “Tetrahydroquinoline derivatives useful as bromodomain inhibitors” (GlaxoSmithKline LLC, priority 2011, dated 2016).

Where “and” joins values, the source holds several entries; their conditions need not be identical. Identical values can stand only once.

The test system of series [1] is LPS induced IL-6 secretion from whole blood. Put plainly: Measurement of LPS induced IL-6 secretion from whole blood. Particulars: 24 h, LPS 200 ng/ml, IL-6 by immunoassay. In kind it is cell-based. The protocol:
Measurement of LPS Induced IL-6 Secretion from Whole Blood
Activation of monocytic cells by agonists of toll-like receptors such as bacterial lipopolysaccharide (LPS) results in production of key inflammatory mediators including IL-6. Such pathways are widely considered to be central to the pathophysiology of a range of auto-immune and inflammatory disorders.
Compounds to be tested are diluted to give a range of appropriate concentrations of which 1 μl of the diluted stocks is added to a 96 well plate. Following addition of whole blood (130 μl) the plates are incubated at 37 degrees (5% CO2) for 30 min before the addition of 10 μl of 2.8 ug/ml LPS, diluted in complete RPMI 1640 (final concentration=200 ng/ml), to give a total volume of 140 ul per well. After further incubation for 24 hours at 37 degrees, 140 μl of PBS are added to each well. The plates are sealed, shaken for 10 minutes and then centrifuged (2500 rpm×10 min). 100 μl of the supernatant are removed and IL-6 levels assayed by immunoassay (typically by MesoScale Discovery technology) either immediately or following storage at −20 degrees. Concentration response curves for each compound was generated from the data and an IC50 value was calculated

Series [2] relates to W12 cells (episomal HPV16 genomes). Put plainly: Measurement of HPV infected cells: W12 cell viability. In kind it is cell-based. Particulars: Human papillomavirus 16, 48 h, 2 days. The procedure:
(§1) Measurement of HPV Infected Cells The […] cell clone #20850, derived from a low grade cervical […] (Stanley et al., Int. J. Cancer. V. 43. p. 672-676. 1989), carries episomal HPV16 genomes, maintained at approximately 100 copies per cell. Epithelial cell line C33A, which is not infected with any HPV strain was used as a negative control cell to assess non-specific cytotoxicity. […] and C33A cells were cultured with the compound of Example 2 for 2 days and viable cell content monitored by assaying [ATP] at end of this period. Data was normalised to DMSO control treated cells on day 2.

Another series addresses T1, Bromodomain BRD2 (Homo sapiens, UniProt P25440).
T1 construct: BRD2 (1-473); made in house; host or cells: E. coli (pET15b vector)
As to the kind of experiment: Time Resolved Fluorescence Resonance Energy Transfer (TR-FRET) assay, BRD2. Particulars: BRD2 (1-473), acetylated histone peptide. In kind it is binding. The protocol:
(§2) Time Resolved Fluorescence Resonance […] Transfer (TR-FRET) Assay
(§3) The binding of the compounds of formula (I) to Bromodomains BRD2, BRD3 and BRD4 was assessed using a time resolved fluorescent resonance energy transfer binding assay, that measures the binding of an acetylated histone peptide to the bromodomain protein.
(§4) The bromodomain protein, histone peptide and a variable concentration of test compound are incubated together to reach thermodynamic equilibrium.
(§5) The protected peptide was assembled on a solid-phase synthesiser using preloaded Wang resin and utilising standard Fmoc synthesis protocols. The C-terminal lysine was protected by a hyper acid-labile group allowing for its selective removal at the end of the assembly and attachment of the biotin. The crude peptide was obtained after cleavage from the resin with a mixture of trifluoroacetic acid (TFA), triisopropylsilane and water (95:2.5:2.5) for 3 h at room temperature and was then purified using a C18 reverse-phase column utilising a 0.1% TFA-buffered water/acetonitrile gradient. The resulting fractions were analysed and fractions which were >95% pure by analytical HPLC and giving the correct mw (by MALDiTOF mass spectroscopy) were pooled and freeze dried. The final material was analysed by HPLC to confirm purity.
(§6) Recombinant Human Bromodomains (BRD2 (1-473), BRD3 (1-435) and BRD4 (1-477)) were expressed in E. coli cells (in pET15b vector) with a six-His tag at the N-terminal. The His-tagged Bromodomain was extracted from E. coli cells using sonication and purified using a nickel sepharose 6FF column, the proteins were washed and then eluted with 50 mM Tris-Hcl pH8.0. 300 mM NaCl, 1 mM β-mercaptoethanol and 20 mM Imidazole. Further purification was performed by affinity chromatography on a HisTRAP HP column, eluting with a linear 0-500 mM […] gradient, over 20 column volumes. Final purification was completed by Superdex 200 prep grade size exclusion column. Purified protein was stored at −80 C in 20 mM HEPES pH 7.5 and 100 mM NaCl. Protein identity was confirmed by peptide mass fingerprinting and predicted molecular weight confirmed by mass spectrometry.
(§7) Protocol for Bromodomain BRD2, 3 and 4 Assays:
(§8) All assay components were dissolved in buffer composition of 50 mM HEPES pH7.4, 50 mM NaCl and 0.5 mM CHAPS. The final concentration of bromodomain proteins were 100 nM and the histone peptide was 300 nM, these components are premixed and allowed to equilibrate for 1 hour in the dark. 8 μl of this reaction mixture was added to all wells containing 50 nl of various concentrations of test compound or DMSO vehicle (0.5% final) in Greiner 384 well black low volume microtitre plates and incubated in dark for 60 mins at room temperature. […] detection mixture containing anti-6his XL665 labeled antibody and streptavidin labeled with europium cryptate was added to all wells and a further dark incubation of at least 30 mins was performed. Plates were then read on the Envision platereader, (λex=317 nm, donor λEM=615 nm; acceptor λEM=665 nm; Dichroic LANCE dual). Time resolved fluorescent intensity measurements were made at both emission wavelengths and the ratio of acceptor/donor was calculated and used for data analysis. All data was normalized to the mean of 16 high and 16 low control wells on each plate. A four parameter curve fit of the following form was then applied: y=a+((b−a)/(1+(10^x/10^c)^d)
(§9) Where ‘a’ is the minimum, ‘b’ is the Hill slope, ‘c’ is the pIC50 and ‘d’ is the maximum.

In another series the target is T2, Bromodomain BRD4 (Homo sapiens, UniProt O60885).
T2 construct: BRD4 (1-477); made in house; host or cells: E. coli (pET15b vector)
As to the kind of experiment: Time Resolved Fluorescence Resonance Energy Transfer (TR-FRET) assay, BRD4. It counts as binding. As to conditions: BRD4 (1-477), acetylated histone peptide. The protocol: as §2, §3, §4, §5, §6, §7, §8, §9
On the technique in general: In TR-FRET formats the signal depends on donor and acceptor labels being close together.

For a further series, the target named is T3, Bromodomain BRD3 (Homo sapiens, UniProt Q15059).
T3 construct: BRD3 (1-435); made in house; host or cells: E. coli (pET15b vector)
Put plainly: Time Resolved Fluorescence Resonance Energy Transfer (TR-FRET) assay, BRD3. In kind it is binding. As to conditions: BRD3 (1-435), acetylated histone peptide. The protocol:
as §2, §3, §4, §5, §6, §7, §8, §9

Series [3] can be described thus: Measurement of HPV infected cells: C33A negative control cell viability. In kind it is cell-based. Particulars: human, 3 μM, normalised to DMSO control, read-out: Viability at the maximal tested concentration. The procedure:
as §1

The subject of another series is C33A cells. The series is described as above. In kind it is cell-based. Particulars: 2 days, [ATP] assay. The protocol:
as §1

T1 sequence (P25440 1-473): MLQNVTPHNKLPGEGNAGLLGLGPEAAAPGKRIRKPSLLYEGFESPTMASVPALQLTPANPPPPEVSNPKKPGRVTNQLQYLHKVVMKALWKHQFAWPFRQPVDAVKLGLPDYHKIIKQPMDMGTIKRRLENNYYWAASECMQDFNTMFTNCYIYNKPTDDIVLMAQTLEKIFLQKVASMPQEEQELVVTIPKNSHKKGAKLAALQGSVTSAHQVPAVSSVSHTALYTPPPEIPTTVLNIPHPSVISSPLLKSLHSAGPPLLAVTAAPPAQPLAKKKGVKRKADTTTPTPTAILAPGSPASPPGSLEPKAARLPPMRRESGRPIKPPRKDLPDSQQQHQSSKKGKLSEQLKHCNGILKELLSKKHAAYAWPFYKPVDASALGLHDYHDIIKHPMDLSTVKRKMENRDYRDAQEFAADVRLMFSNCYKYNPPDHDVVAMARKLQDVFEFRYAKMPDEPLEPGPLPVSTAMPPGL
T3 sequence (Q15059 1-435): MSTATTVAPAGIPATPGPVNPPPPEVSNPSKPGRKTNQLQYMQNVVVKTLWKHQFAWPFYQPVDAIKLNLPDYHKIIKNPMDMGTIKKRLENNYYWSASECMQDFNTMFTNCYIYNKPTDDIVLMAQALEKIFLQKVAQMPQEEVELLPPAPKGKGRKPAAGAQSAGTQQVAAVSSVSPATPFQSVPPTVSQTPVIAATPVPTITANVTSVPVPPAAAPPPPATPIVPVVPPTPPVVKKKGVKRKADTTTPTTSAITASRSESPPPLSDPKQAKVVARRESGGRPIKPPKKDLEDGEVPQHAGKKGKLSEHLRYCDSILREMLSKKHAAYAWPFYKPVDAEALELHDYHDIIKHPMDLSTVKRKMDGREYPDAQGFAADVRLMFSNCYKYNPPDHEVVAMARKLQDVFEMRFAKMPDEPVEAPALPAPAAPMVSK

For `COCCn1cc(-c2ccc3c(c2)[C@H](Nc2ccc(C#N)cn2)C[C@H](C)N3C(C)=O)cn1` [Example 2, 6-(((2S,4R)-1-acetyl-6-(1-(2-methoxyethyl)-1H-pyrazol-4-yl)-2-methyl-1,2,3,4-tetrahydroquinolin-4-yl)amino)nicotinonitrile], the IC50 in series [1] was 0.2 µM; in series [2] ([ATP] assay, n=4, read-out: mean pIC50 value, W12 cell viability (converted)), 0.0813 µM; at Bromodomain BRD2, 0.0631 to 0.126 µM and 0.0631 to 0.316 µM; on Bromodomain BRD4, 0.0631 to 0.126 µM and 0.0631 to 0.316 µM; at Bromodomain BRD3, 0.0631 to 0.126 µM and 0.0631 to 0.316 µM. Further, the viability at 3 µM in series [2] (3 μM, normalised to DMSO control, read-out: Viability at the maximal tested concentration) amounted to 34.8%. Also, in series [3], the viability at 2 days, 3 µM turned out to be 73.5%. Also, in the series with C33A cells, the “effect on C33A negative control cells (viability)” value is recorded as “limited effect”.
